Test results published in patent US20180243309A1, “TOPICAL ANTIVIRAL COMPOSITIONS” (Topical Remedy, LLC, priority 2015, published 2018).

What was measured:
HSV-1, strain E-377 [1] = assay: Orofacial HSV-1 infection in SKH-1 mice: virus titers of orofacial swabs (CPE microtiter assay on rabbit kidney cells); type: in vivo; settings: for mean virus titer ± standard deviation, Day 4 am: Day 4, am (before treatments); for mean virus titer ± standard deviation, Day 4 pm: Day 4, pm (after treatments); for mean virus titer ± standard deviation, Day 5 am: Day 5, am (before treatments); for mean virus titer ± standard deviation, Day 5 pm: Day 5, pm (after treatments); for mean virus titer ± standard deviation, Day 6 am: Day 6, am (before treatments); for mean virus titer ± standard deviation, Day 6 pm: Day 6, pm (after treatments); for Mean Peak Titer Score ± SD: orofacial swabs; for #Virus Positive/#Inoculated / Titer-Day AUC: orofacial swabs days 2-8 and 10
Text: (§1) To determine the effect of treatment on cutaneous viral replication, severity of lesions is scored from days 1-21 and swabs of the snout area are taken on days 2-8 and 10. […] All drug studies are placebo or vehicle controlled.
(§2) During the post-challenge phase, animals were examined daily and lesions scored for severity and samples taken for quantitation of orofacial HSV replication.
To determine the effect of treatment on HSV-1 replication on the orofacial area, swabs of the area were obtained on days 2 through 8 and 10 post-viral challenge. On treatment days, swabs were obtained at least 3 hours following the final treatment. Swabs were placed in tubes containing 2.0 ml of media, vortexed, and frozen at −70° C. until titrated for HSV. […] Wells were seeded with 10^4 cells per well and inoculated in triplicate 24 h later. The plates were read under a microscope five days after viral inoculation and the presence/absence of viral CPE in each well noted. A TCID50 value was calculated using Reed-Muench Methodology.
To determine the effect of treatment on HSV-1 replication from the lesions on the orofacial area, swabs of the area were obtained at least 3 hours after treatment on days when mice are treated. […] Samples were taken before treatments and after treatments.
(§3) Mortality rates were analyzed by Fisher's exact test and mean day of death using Mann-Whitney U rank sum test. Infection rates, peak lesion scores, peak virus titers, areas under the curve for virus titer-day and lesion score-day between control and treated animals will be compared using the Mann-Whitney U Rank Sum Test. A P-value of 0.05 or less will be considered significant.
In addition, the immediate post treatment effects on lesion derived virus titers was analyzed using the mixed linear model with a P-value of 0.05 or less considered as significant. This difference in virus recovered from animals before and after treatments for all treatment days was used to calculate significance.

HSV-1, strain E-377 [2] = assay: Orofacial HSV-1 infection in SKH-1 mice: mortality and facial lesion scores; type: in vivo; settings: for Mortality Number: dead/total, topical 3 times daily Days 4-6, 20 min intervals, acyclovir 3 times daily for 5 days from 24 h after inoculation; for #With Lesions/#Inoculated: facial lesions, days 1-21; for Mean Peak Lesion Score ± SD: lesion score scale 0.0-5.0
Description: In this model, mice are anesthetized with a ketamine/xylazine mixture and implanted with an electronic microchip for individual identification. […] This procedure is performed carefully to prevent bleeding. […] Following this procedure, animals are returned to their cages and observed until recovery.
as §1, §2
Female SKH-1 mice (Charles River Laboratories, Raleigh, N.C.) were assigned randomly to groups. Each efficacy group contained 10 animals. Animals were anesthetized with ketamine-xylazine, implanted with an identification microchip, and has the orofacial area abraded using a Dremmel tool with an engraving bit.
To determine the effect of treatment on the development and severity of lesions, severity of lesions were graded on a 0.0 to 5.0 scale in 0.5 increments, according to the scale below. The presence or absence of lesions and severity of lesions was recorded daily beginning day 1 through day 21 post-challenge. Animals were observed daily for signs of systemic viral disease.
as §3, with “Test.” for “Test. A P-value of 0.05 or less will be considered significant.”

[3] = same regimens as Mortality Number

Compound	mean virus titer ± standard deviation, Day 4 am (HSV-1, strain E-377 [1])	mean virus titer ± standard deviation, Day 4 pm (HSV-1, strain E-377 [1]) [TCID50]	mean virus titer ± standard deviation, Day 5 am (HSV-1, strain E-377 [1]) [TCID50]	mean virus titer ± standard deviation, Day 5 pm (HSV-1, strain E-377 [1]) [TCID50]	mean virus titer ± standard deviation, Day 6 am (HSV-1, strain E-377 [1]) [TCID50]	mean virus titer ± standard deviation, Day 6 pm (HSV-1, strain E-377 [1]) [TCID50]	Mean Peak Titer Score ± SD (HSV-1, strain E-377 [1])	#Virus Positive/#Inoculated (HSV-1, strain E-377 [1])	Titer-Day AUC (HSV-1, strain E-377 [1])	Mortality Number (HSV-1, strain E-377 [2])	#With Lesions/#Inoculated (HSV-1, strain E-377 [2])	Mean Peak Lesion Score ± SD (HSV-1, strain E-377 [2])	Lesion-Day AUC (HSV-1, strain E-377 [2]; lesion score scale 0.0-5.0, days 1-21)	MDD (Mean Day of Death) (HSV-1, strain E-377 [2]; [3])	Mortality Percent (HSV-1, strain E-377 [2]; [3]) [%]
Glycolic acid [Compound 2]	4.2 ± 1.3^ TCID50	4.2 ± 1.6	5.5 ± 0.4	5.1 ± 0.6	5.2 ± 0.6	4.4 ± 0.5	5.3 ± 0.5	10/10	33.3	–	–	–	–	–	–
Ethyl alcohol [Compound 1]	5.1 ± 1.0^ TCID50	5.1 ± 1.5	5.7 ± 0.4	5.6 ± 0.6	4.9 ± 0.7	4.0 ± 0.8	6.0 ± 0.2	10/10	32.2	8/10	10/10	3.0 ± 0.0↑	41.1↑	7.9	80
Nc1nc2c(ncn2COCCO)c(=O)[nH]1 [5% Acyclovir, Acyclovir, reference compound]	0.2 ± 0.8^ TCID50	0.0 ± 0.0	0.0 ± 0.0	0.0 ± 0.0	0.0 ± 0.0	0.0 ± 0.0	0.6 ± 0.1	3/10	–	0/10	0/10	0.0 ± 0.0	–	–	0
